Test results taken from ChEMBL document CHEMBL3885881, “DrugMatrix”.

Organism: Rattus norvegicus
Assay: DrugMatrix - Regimen: Daily Repeat
Type: toxicity, organism-based, Sprague-Dawley
Set-up: regimen Daily Repeat, gender Male, age 6-8 weeks
Details: in vivo, po, route oral GAVAGE, vehicle .5 % CMC; for ABSOLUTE BASOPHIL / ABSOLUTE EOSINOPHIL / ABSOLUTE LYMPHOCYTE / ABSOLUTE MONOCYTE / ABSOLUTE SEGMENTED NEUTROPHIL / BASOPHIL / EOSINOPHIL / ERYTHROCYTE COUNT / HEMATOCRIT / HEMOGLOBIN / LEUKOCYTE COUNT / LYMPHOCYTE / MEAN CORPUSCULAR HEMOGLOBIN / MEAN CORPUSCULAR HEMOGLOBIN CONCENTRATION / MEAN CORPUSCULAR VOLUME / MONOCYTE / NEUTROPHIL / NUCLEATED RED BLOOD CELLS / PLATELET COUNT: tissue Blood; for ALANINE AMINOTRANSFERASE / ALBUMIN / ALKALINE PHOSPHATASE / ASPARTATE AMINOTRANSFERASE / BLOOD UREA NITROGEN / CARBON DIOXIDE / CHLORIDE / CHOLESTEROL / CREATINE PHOSPHOKINASE / CREATININE / GLUCOSE / LACTATE DEHYDROGENASE / LIPASE / PHOSPHORUS / POTASSIUM / SODIUM / TOTAL BILIRUBIN / TOTAL PROTEIN / URIC ACID: tissue Plasma
[1] = 20 mg/kg, 72 h, dose level Low, time 3 day
[2] = 20 mg/kg, 120 h, dose level Low, time 5 day
[3] = 600 mg/kg, 72 h, dose level High, time 3 day
[4] = 600 mg/kg, 120 h, dose level High, time 5 day

## CC(C)CN(C[C@@H](O)[C@H](Cc1ccccc1)NC(=O)O[C@H]1CCOC1)S(=O)(=O)c1ccc(N)cc1
[1]
  ABSOLUTE BASOPHIL: 0 CELLS/uL
  ABSOLUTE EOSINOPHIL: 148.67 CELLS/uL
  ABSOLUTE LYMPHOCYTE: 12756.67 CELLS/uL
  ABSOLUTE MONOCYTE: 107.67 CELLS/uL
  ABSOLUTE SEGMENTED NEUTROPHIL: 887 CELLS/uL
  BASOPHIL: 0%
  EOSINOPHIL: 1%
  ERYTHROCYTE COUNT: 5.52 x10E6/uL
  HEMATOCRIT: 35.2%
  HEMOGLOBIN: 13.3 G/DL
  LEUKOCYTE COUNT: 13.9 x10E3/uL
  LYMPHOCYTE: 91.67%
  MEAN CORPUSCULAR HEMOGLOBIN: 24.17 pg
  MEAN CORPUSCULAR HEMOGLOBIN CONCENTRATION: 37.8 G/DL
  MEAN CORPUSCULAR VOLUME: 63.87 fL
  MONOCYTE: 0.67%
  NEUTROPHIL: 6.67%
  NUCLEATED RED BLOOD CELLS: 0 /100WBC
  PLATELET COUNT: 1248.33 x10E3/uL
  ALANINE AMINOTRANSFERASE: 50 u/L
  ALBUMIN: 4.23 G/DL
  ALKALINE PHOSPHATASE: 362 u/L
  ASPARTATE AMINOTRANSFERASE: 76.33 u/L
  BLOOD UREA NITROGEN: 16.33 mg/dL
  CARBON DIOXIDE: 26 mmol/L
  CHLORIDE: 102 MEQ/L
  CHOLESTEROL: 67 mg/dL
  CREATINE PHOSPHOKINASE: 172.67 u/L
  CREATININE: 0.21 mg/dL
  GLUCOSE: 169.67 mg/dL
  LACTATE DEHYDROGENASE: 136.67 u/L
  LIPASE: 8 u/L
  PHOSPHORUS: 12.83 mg/dL
  POTASSIUM: 6.23 MEQ/L
  SODIUM: 144.7 MEQ/L
  TOTAL BILIRUBIN: 0.17 mg/dL
  TOTAL PROTEIN: 6.07 G/DL
  URIC ACID: 1.83 mg/dL
[2]
  ABSOLUTE BASOPHIL: 0 CELLS/uL
  ABSOLUTE EOSINOPHIL: 74 CELLS/uL
  ABSOLUTE LYMPHOCYTE: 7729 CELLS/uL
  ABSOLUTE MONOCYTE: 39.33 CELLS/uL
  ABSOLUTE SEGMENTED NEUTROPHIL: 524.33 CELLS/uL
  BASOPHIL: 0%
  EOSINOPHIL: 1%
  ERYTHROCYTE COUNT: 5.73 x10E6/uL
  HEMATOCRIT: 35.57%
  HEMOGLOBIN: 13.37 G/DL
  LEUKOCYTE COUNT: 8.37 x10E3/uL
  LYMPHOCYTE: 92%
  MEAN CORPUSCULAR HEMOGLOBIN: 23.33 pg
  MEAN CORPUSCULAR HEMOGLOBIN CONCENTRATION: 37.63 G/DL
  MEAN CORPUSCULAR VOLUME: 62.13 fL
  MONOCYTE: 0.33%
  NEUTROPHIL: 6.67%
  NUCLEATED RED BLOOD CELLS: 0 /100WBC
  PLATELET COUNT: 1179.33 x10E3/uL
  ALANINE AMINOTRANSFERASE: 54.33 u/L
  ALBUMIN: 4.43 G/DL
  ALKALINE PHOSPHATASE: 421.33 u/L
  ASPARTATE AMINOTRANSFERASE: 83 u/L
  BLOOD UREA NITROGEN: 14.33 mg/dL
  CARBON DIOXIDE: 28.33 mmol/L
  CHLORIDE: 101 MEQ/L
  CHOLESTEROL: 68 mg/dL
  CREATINE PHOSPHOKINASE: 229.67 u/L
  CREATININE: 0.2 mg/dL
  GLUCOSE: 141 mg/dL
  LACTATE DEHYDROGENASE: 108 u/L
  LIPASE: 8.67 u/L
  PHOSPHORUS: 12.47 mg/dL
  POTASSIUM: 6.58 MEQ/L
  SODIUM: 146.5 MEQ/L
  TOTAL BILIRUBIN: 0.2 mg/dL
  TOTAL PROTEIN: 6.3 G/DL
  URIC ACID: 1.3 mg/dL
[3]
  ABSOLUTE BASOPHIL: 0 CELLS/uL
  ABSOLUTE EOSINOPHIL: 50.33 CELLS/uL
  ABSOLUTE LYMPHOCYTE: 11050.67 CELLS/uL
  ABSOLUTE MONOCYTE: 72.33 CELLS/uL
  ABSOLUTE SEGMENTED NEUTROPHIL: 1093.33 CELLS/uL
  BASOPHIL: 0%
  EOSINOPHIL: 0.33%
  ERYTHROCYTE COUNT: 5.53 x10E6/uL
  HEMATOCRIT: 35.5%
  HEMOGLOBIN: 13.6 G/DL
  LEUKOCYTE COUNT: 12.27 x10E3/uL
  LYMPHOCYTE: 89.67%
  MEAN CORPUSCULAR HEMOGLOBIN: 24.57 pg
  MEAN CORPUSCULAR HEMOGLOBIN CONCENTRATION: 38.27 G/DL
  MEAN CORPUSCULAR VOLUME: 64.1 fL
  MONOCYTE: 0.67%
  NEUTROPHIL: 9.33%
  NUCLEATED RED BLOOD CELLS: 0 /100WBC
  PLATELET COUNT: 1258 x10E3/uL
  ALANINE AMINOTRANSFERASE: 56.67 u/L
  ALBUMIN: 4.33 G/DL
  ALKALINE PHOSPHATASE: 381 u/L
  ASPARTATE AMINOTRANSFERASE: 116.67 u/L
  BLOOD UREA NITROGEN: 16 mg/dL
  CARBON DIOXIDE: 25 mmol/L
  CHLORIDE: 107.33 MEQ/L
  CHOLESTEROL: 69 mg/dL
  CREATINE PHOSPHOKINASE: 1567.67 u/L
  CREATININE: 0.18 mg/dL
  GLUCOSE: 194.33 mg/dL
  LACTATE DEHYDROGENASE: 164.67 u/L
  LIPASE: 8.67 u/L
  PHOSPHORUS: 14.17 mg/dL
  POTASSIUM: 6.64 MEQ/L
  SODIUM: 145.83 MEQ/L
  TOTAL BILIRUBIN: 0.23 mg/dL
  TOTAL PROTEIN: 5.97 G/DL
  URIC ACID: 2.07 mg/dL
[4]
  ABSOLUTE BASOPHIL: 0 CELLS/uL
  ABSOLUTE EOSINOPHIL: 292.33 CELLS/uL
  ABSOLUTE LYMPHOCYTE: 15254.33 CELLS/uL
  ABSOLUTE MONOCYTE: 69 CELLS/uL
  ABSOLUTE SEGMENTED NEUTROPHIL: 1517.67 CELLS/uL
  BASOPHIL: 0%
  EOSINOPHIL: 1.67%
  ERYTHROCYTE COUNT: 5.48 x10E6/uL
  HEMATOCRIT: 34.63%
  HEMOGLOBIN: 13.17 G/DL
  LEUKOCYTE COUNT: 17.13 x10E3/uL
  LYMPHOCYTE: 88.67%
  MEAN CORPUSCULAR HEMOGLOBIN: 24.03 pg
  MEAN CORPUSCULAR HEMOGLOBIN CONCENTRATION: 38 G/DL
  MEAN CORPUSCULAR VOLUME: 63.2 fL
  MONOCYTE: 0.33%
  NEUTROPHIL: 9.33%
  NUCLEATED RED BLOOD CELLS: 0 /100WBC
  PLATELET COUNT: 1347.67 x10E3/uL
  ALANINE AMINOTRANSFERASE: 41.67 u/L
  ALBUMIN: 4.2 G/DL
  ALKALINE PHOSPHATASE: 390 u/L
  ASPARTATE AMINOTRANSFERASE: 76.33 u/L
  BLOOD UREA NITROGEN: 15.67 mg/dL
  CARBON DIOXIDE: 27.33 mmol/L
  CHLORIDE: 102.33 MEQ/L
  CHOLESTEROL: 58.67 mg/dL
  CREATINE PHOSPHOKINASE: 202 u/L
  CREATININE: 0.21 mg/dL
  GLUCOSE: 161.33 mg/dL
  LACTATE DEHYDROGENASE: 95.67 u/L
  LIPASE: 8.33 u/L
  PHOSPHORUS: 12.93 mg/dL
  POTASSIUM: 6.23 MEQ/L
  SODIUM: 144.37 MEQ/L
  TOTAL BILIRUBIN: 0.17 mg/dL
  TOTAL PROTEIN: 6 G/DL
  URIC ACID: 1.77 mg/dL
